Experimental findings from patent US20250197382A1, “KIF18A INHIBITOR” (WIGEN BIOMEDICINE TECHNOLOGY (SHANGHAI) CO., LTD., priority 2022, published 2025) are described below.

The structures appear in SMILES notation.

Recombinant human KIF18A (1-467His-tagged) protein, sequence (Q8NI77 1-467): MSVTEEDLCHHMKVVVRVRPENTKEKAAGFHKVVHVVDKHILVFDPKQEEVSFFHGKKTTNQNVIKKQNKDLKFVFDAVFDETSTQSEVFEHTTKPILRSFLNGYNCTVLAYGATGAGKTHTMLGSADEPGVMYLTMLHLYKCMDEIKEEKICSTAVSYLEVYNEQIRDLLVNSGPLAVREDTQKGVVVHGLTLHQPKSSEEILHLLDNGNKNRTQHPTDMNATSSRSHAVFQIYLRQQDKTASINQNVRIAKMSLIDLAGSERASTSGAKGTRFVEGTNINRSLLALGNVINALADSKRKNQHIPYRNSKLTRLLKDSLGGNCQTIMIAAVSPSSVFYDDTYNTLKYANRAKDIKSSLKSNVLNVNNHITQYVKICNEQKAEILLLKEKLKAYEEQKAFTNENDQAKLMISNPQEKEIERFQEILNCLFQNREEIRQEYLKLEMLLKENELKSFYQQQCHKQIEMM
Recombinant human KIF18A (1-467His-tagged) protein, sequence (P02550 whole entry partner): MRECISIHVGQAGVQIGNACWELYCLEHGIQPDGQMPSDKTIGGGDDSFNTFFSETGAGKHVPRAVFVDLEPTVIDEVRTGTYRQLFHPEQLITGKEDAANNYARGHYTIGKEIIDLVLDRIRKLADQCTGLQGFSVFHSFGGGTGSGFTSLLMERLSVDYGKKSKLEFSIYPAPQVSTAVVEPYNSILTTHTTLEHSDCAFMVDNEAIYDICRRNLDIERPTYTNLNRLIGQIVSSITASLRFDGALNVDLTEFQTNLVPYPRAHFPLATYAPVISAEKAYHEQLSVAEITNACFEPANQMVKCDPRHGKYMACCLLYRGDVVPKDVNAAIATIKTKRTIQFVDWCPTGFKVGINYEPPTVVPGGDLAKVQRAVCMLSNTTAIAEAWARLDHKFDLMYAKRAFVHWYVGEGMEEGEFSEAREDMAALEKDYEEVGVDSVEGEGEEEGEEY
Recombinant human KIF18A (1-467His-tagged) protein, sequence (P02554 whole entry partner): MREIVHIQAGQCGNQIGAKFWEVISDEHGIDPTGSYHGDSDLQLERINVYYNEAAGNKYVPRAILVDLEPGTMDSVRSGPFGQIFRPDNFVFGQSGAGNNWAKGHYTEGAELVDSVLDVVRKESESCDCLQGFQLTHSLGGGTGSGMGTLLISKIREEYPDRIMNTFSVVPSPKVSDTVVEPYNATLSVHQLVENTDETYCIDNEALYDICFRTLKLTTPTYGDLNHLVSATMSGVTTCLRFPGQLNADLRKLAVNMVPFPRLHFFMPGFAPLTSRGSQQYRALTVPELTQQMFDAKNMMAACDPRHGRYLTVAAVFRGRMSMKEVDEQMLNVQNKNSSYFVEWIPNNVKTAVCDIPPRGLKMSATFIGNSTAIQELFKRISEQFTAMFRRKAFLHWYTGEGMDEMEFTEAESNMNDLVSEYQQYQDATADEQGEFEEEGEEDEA

In the experiment the target is Recombinant human KIF18A (1-467His-tagged) protein (Homo sapiens (Human), UniProt Q8NI77). The experiment in a line: KIF18A enzyme assay (microtubule-stimulated ATPase activity, ADP-Glo). Format: biochemical. Particulars: 30 nM KIF18A, ATP 75 μM, read-out: inhibitory activity against KIF18A IC50. The procedure, abridged:
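Baculovirus-expressed human KIF18A (1-467, His-tagged; 30 nM) preincubated 15 min at room temperature with compound (22-point 2-fold series) in pH 7.5 Tris buffer containing 30 μg/mL pig microtubules and 1 μM paclitaxel.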
Take `Cn1ccc2cc(NC(=O)c3ccc(NS(=O)(=O)CCO)cc3N3CCC4(CC3)CC4)cc(OCCC(F)(F)F)c21` [Compound 389]: the IC50 was at most 100 nM.

Take `C[C@@H](CO)NS(=O)(=O)c1ccc(NC(=O)c2cc(N3CCC(F)(F)CC3)c3occc3c2)c(N2CCC3(CC2)CC3)c1` [Compound 189]: the IC50 is at most 100 nM.

As to `C[C@@H]1CN(c2cc(C(=O)Nc3ccc(NS(=O)(=O)CCO)cc3N3CCC4(CC3)CC4)cc3ccn(C)c23)CCO1` [Compound 418], the IC50 was at most 100 nM.

For the compound `CC1(F)CCN(c2cc(C(=O)Nc3ccc(NS(=O)(=O)CCO)cc3N3CCC4(CC3)CC4)cc3ccoc23)C1` (stereo not drawn) [Compound 168], the IC50 was at most 100 nM.

Regarding `C[C@@H]1CN(c2cc(NC(=O)c3ccc(S(=O)(=O)N[C@@H](C)CO)cc3N3CCC4(CC3)CC4)cc3c2N(C)CC3)CCO1` [Compound 287], the IC50 is at most 100 nM.

As to `C[C@@H]1CN(c2cc(C(=O)Nc3ccc(S(=O)(=O)N[C@@H](C)CO)cc3N3CCC4(CC3)CC4)cc3ccn(C)c23)CCO1` [Compound 447], the IC50 is at most 100 nM.

On to `C[C@@H]1CN(c2nc(C(=O)Nc3ccc(NS(=O)(=O)[C@H](C)CO)cc3N3CCC4(CC3)CC4)cc3ccoc23)CCO1` [Compound 240], for which the IC50 is at most 100 nM.

On to `C[C@@H]1CN(c2nc(C(=O)Nc3ccc(NS(=O)(=O)[C@@H](C)CO)cc3N3CCC4(CC3)CC4)cc3ccn(C)c23)CCO1` [Compound 495], for which the IC50 was at most 100 nM.

`O=C(Nc1ccc(NS(=O)(=O)CCO)cc1N1CCC2(CC1)CC2)c1cc2ccoc2c(N2CCOCC2)n1` [Compound 236]: the IC50 is at most 100 nM.

As to `C[C@H](CO)NS(=O)(=O)c1ccc(C(=O)Nc2cc3c(c(N4CCC(F)(F)CC4)n2)N(C)CC3)c(N2CCC3(CC2)CC3)c1` [Compound 350], the IC50 was at most 100 nM.

As for `Cn1ccc2cc(C(=O)Nc3ccc(NS(=O)(=O)CCO)cc3N3CCC4(CC3)CC4)nc(OCCC(F)(F)F)c21` [Compound 485], the IC50 was at most 100 nM.

As to `O=C(Nc1ccc(S(=O)(=O)NCCO)cc1N1CCC2(CC1)CC2)c1cc(N2CCC(F)(F)CC2)c2occc2c1` [Compound 177], the IC50 was at most 100 nM.

Regarding `CN1CCc2cc(C(=O)Nc3ccc(NS(=O)(=O)CCO)cc3N3CCC4(CC3)CC4)cc(N3CCC(F)(F)CC3)c21` [Compound 257], the IC50 is at most 100 nM.

Turning to `C[C@@H]1CN(c2cc(NC(=O)c3ccc(S(=O)(=O)N[C@@H](C)CO)cc3N3CCC4(CC3)CC4)cc3ccn(C)c23)CCO1` [Compound 415], the IC50 is at most 100 nM.

As to `C[C@H](CO)NS(=O)(=O)c1ccc(NC(=O)c2cc(N3CCO[C@H](C)C3)c3c(ccn3C)c2)c(N2CCC3(CC2)CC3)c1` [Compound 448], the IC50 is at most 100 nM.

`C[C@@H]1CN(c2cc(C(=O)Nc3ccc(S(=O)(=O)N[C@@H](C)CO)cc3N3CCC4(CC3)CC4)cc3c2OCC3)CCO1` [Compound 63]: the IC50 was at most 100 nM.

Regarding `Cn1ccc2cc(C(=O)Nc3ccc(S(=O)(=O)NCCO)cc3N3CCC4(CC3)CC4)cc(N3CCC(F)CC3)c21` [Compound 441], the IC50 is at most 100 nM.

For the compound `CC1(F)CCN(c2cc(C(=O)Nc3ccc(S(=O)(=O)NCCO)cc3N3CCC4(CC3)CC4)cc3ccoc23)C1` (stereo not drawn) [Compound 184], the IC50 was at most 100 nM.

Turning to `C[C@@H]1CN(c2cc(C(=O)Nc3ccc(NS(=O)(=O)CCO)cc3N3CCC4(CC3)CC4)cc3ccoc23)CCO1` [Compound 162], the IC50 was at most 100 nM.

On to `CN1CCc2cc(NC(=O)c3ccc(S(=O)(=O)NCCO)cc3N3CCC4(CC3)CC4)nc(N3CCOCC3)c21` [Compound 332], for which the IC50 is at most 100 nM.

For `O=C(Nc1ccc(S(=O)(=O)NCCO)cc1N1CCC2(CC1)CC2)c1cc2ccoc2c(N2CC3CC3C2)n1` (stereo not drawn) [Compound 250], the IC50 was at most 100 nM.

For `C[C@H](CO)NS(=O)(=O)c1ccc(NC(=O)c2cc3c(c(N4CCC(F)(F)CC4)n2)N(C)CC3)c(N2CCC3(CC2)CC3)c1` [Compound 382], the IC50 was at most 100 nM.

For `O=C(Nc1ccc(NS(=O)(=O)CCO)cc1N1CCC2(CC1)CC2)c1cc(N2CCC(F)(F)CC2)c2occc2c1` [Compound 161], the IC50 is at most 100 nM.

For the compound `C[C@H]1CN(c2nc(C(=O)Nc3ccc(NS(=O)(=O)CCO)cc3N3CCC4(CC3)CC4)cc3c2OCC3)CCO1` [Compound 99], the IC50 was at most 100 nM.

Consider `CC(C)(CO)Nc1cc(NC(=O)c2ccc(S(=O)(=O)NCCO)cc2N2CCC3(CC2)CC3)cc2c1OCC2` [Compound 27], for which the IC50 was at most 100 nM.

For the compound `O=C(Nc1ccc(S(=O)(=O)NCCO)cc1N1CCC2(CC1)CC2)c1cc2ccoc2c(N2CCC3(CC3)C2)n1` [Compound 246], the IC50 is at most 100 nM.

On to `C[C@H]1CN(c2nc(NC(=O)c3ccc(S(=O)(=O)NCCO)cc3N3CCC4(CC3)CC4)cc3c2OCC3)CCO1` [Compound 83], for which the IC50 is at most 100 nM.

Consider `C[C@H](CO)S(=O)(=O)Nc1ccc(C(=O)Nc2cc(N3CCC(F)(F)CC3)c3c(ccn3C)c2)c(N2CCC3(CC2)CC3)c1` [Compound 398], for which the IC50 was at most 100 nM.

Regarding `Cn1ccc2cc(NC(=O)c3ccc(S(=O)(=O)NCCO)cc3N3CCC4(CC3)CC4)cc(N3CCC4(CC4)C3)c21` [Compound 406], the IC50 is at most 100 nM.

With `Cn1ccc2cc(NC(=O)c3ccc(NS(=O)(=O)CCO)cc3N3CCC4(CC3)CC4)cc(N3CCC(C)(F)C3)c21` (stereo not drawn) [Compound 392], the IC50 is at most 100 nM.

For the compound `C[C@@H]1CN(c2cc(C(=O)Nc3ccc(NS(=O)(=O)[C@H](C)CO)cc3N3CCC4(CC3)CC4)cc3ccoc23)CCO1` [Compound 176], the IC50 is at most 100 nM.

As for `C[C@H](CO)S(=O)(=O)Nc1ccc(C(=O)Nc2cc3c(c(N4CCC(F)(F)CC4)c2)OCC3)c(N2CCC3(CC2)CC3)c1` [Compound 14], the IC50 is at most 100 nM.

Turning to `Cn1ccc2cc(NC(=O)c3ccc(NS(=O)(=O)CCO)cc3N3CCC4(CC3)CC4)nc(N3CCC(F)(F)CC3)c21` [Compound 449], the IC50 is at most 100 nM.

As to `C[C@@H](CO)S(=O)(=O)Nc1ccc(C(=O)Nc2cc3c(c(N4CCC(F)(F)CC4)n2)OCC3)c(N2CCC3(CC2)CC3)c1` [Compound 77], the IC50 is at most 100 nM.

With `O=C(Nc1ccc(S(=O)(=O)NCCO)cc1N1CCC2(CC1)CC2)c1cc2ccoc2c(OCCC(F)(F)F)n1` [Compound 245], the IC50 was at most 100 nM.

Turning to `CN1CCc2cc(C(=O)Nc3ccc(S(=O)(=O)NCCO)cc3N3CCC4(CC3)CC4)cc(N3CC4CC4C3)c21` (stereo not drawn) [Compound 314], the IC50 is at most 100 nM.

For the compound `O=C(Nc1ccc(NS(=O)(=O)CCO)cc1N1CCC2(CC1)CC2)c1cc2c(c(N3CCC4(CC4)C3)c1)OCC2` [Compound 38], the IC50 is at most 100 nM.

On to `CC1(F)CCN(c2nc(NC(=O)c3ccc(NS(=O)(=O)CCO)cc3N3CCC4(CC3)CC4)cc3c2OCC3)C1` (stereo not drawn) [Compound 72], for which the IC50 is at most 100 nM.

With `CC1(F)CCN(c2nc(NC(=O)c3ccc(NS(=O)(=O)CCO)cc3N3CCC4(CC3)CC4)cc3ccoc23)C1` (stereo not drawn) [Compound 200], the IC50 is at most 100 nM.

Regarding `Cn1ccc2cc(NC(=O)c3ccc(S(=O)(=O)NCCO)cc3N3CCC4(CC3)CC4)cc(N3CCC(C)(F)C3)c21` (stereo not drawn) [Compound 408], the IC50 is at most 100 nM.

Regarding `O=C(Nc1cc2c(c(OCCC(F)(F)F)c1)OCC2)c1ccc(S(=O)(=O)NCCO)cc1N1CCC2(CC1)CC2` [Compound 21], the IC50 is at most 100 nM.

Consider `CN1CCc2cc(NC(=O)c3ccc(S(=O)(=O)NCCO)cc3N3CCC4(CC3)CC4)nc(N3CCC(C)(F)C3)c21` (stereo not drawn) [Compound 344], for which the IC50 is at most 100 nM.

Regarding `CN1CCc2cc(NC(=O)c3ccc(S(=O)(=O)NCCO)cc3N3CCC4(CC3)CC4)cc(OC3CCC3)c21` [Compound 279], the IC50 is at most 100 nM.

Consider `Cn1ccc2cc(C(=O)Nc3ccc(NS(=O)(=O)CCO)cc3N3CCC4(CC3)CC4)nc(OC3CCC3)c21` [Compound 487], for which the IC50 was at most 100 nM.

For the compound `CN1CCc2cc(NC(=O)c3ccc(NS(=O)(=O)CCO)cc3N3CCC4(CC3)CC4)cc(N3CC(F)(F)C3)c21` [Compound 260], the IC50 is at most 100 nM.

On to `O=C(Nc1ccc(S(=O)(=O)NCCO)cc1N1CCC2(CC1)CC2)c1cc2c(c(N3CC4CC4C3)c1)OCC2` (stereo not drawn) [Compound 58], for which the IC50 was at most 100 nM.

For the compound `O=C(Nc1cc(N2CCC(F)(F)CC2)c2nccn2c1)c1ccc(NS(=O)(=O)CCO)cc1N1CCC2(CC1)CC2` [Compound 535], the IC50 is at most 100 nM.

As to `C[C@@H]1CN(c2cc(C(=O)Nc3ccc(S(=O)(=O)N[C@@H](C)CO)cc3N3CCC4(CC3)CC4)cc3ccoc23)CCO1` [Compound 191], the IC50 is at most 100 nM.

Regarding `C[C@@H]1CN(c2nc(C(=O)Nc3ccc(S(=O)(=O)NCCO)cc3N3CCC4(CC3)CC4)cc3c2N(C)CC3)CCO1` [Compound 370], the IC50 was at most 100 nM.

With `O=C(Nc1cc2c(c(N3CCC(F)(F)CC3)n1)NCCC2)c1ccc(NS(=O)(=O)CCO)cc1N1CCC2(CC1)CC2` [Compound 542], the IC50 was at most 100 nM.

For `CN1CCc2cc(NC(=O)c3ccc(NS(=O)(=O)CCO)cc3N3CCC4(CC3)CC4)cc(N3CC4CC4C3)c21` (stereo not drawn) [Compound 266], the IC50 was at most 100 nM.

As to `C[C@@H](CO)NS(=O)(=O)c1ccc(NC(=O)c2cc3ccn(C)c3c(N3CCC(F)(F)CC3)n2)c(N2CCC3(CC2)CC3)c1` [Compound 509], the IC50 is at most 100 nM.

On to `C[C@@H](CO)S(=O)(=O)Nc1ccc(C(=O)Nc2cc3ccn(C)c3c(N3CCC(F)(F)CC3)n2)c(N2CCC3(CC2)CC3)c1` [Compound 461], for which the IC50 is at most 100 nM.

As to `O=C(Nc1cc(N2CC(F)(F)C2)c2occc2c1)c1ccc(S(=O)(=O)NCCO)cc1N1CCC2(CC1)CC2` [Compound 148], the IC50 was at most 100 nM.

For the compound `CN1CCc2cc(C(=O)Nc3ccc(NS(=O)(=O)CCO)cc3N3CCC4(CC3)CC4)cc(N3CCOCC3)c21` [Compound 300], the concentration for half-maximal inhibition (IC50) was at most 100 nM.

For `CC1(F)CCN(c2cc(NC(=O)c3ccc(S(=O)(=O)NCCO)cc3N3CCC4(CC3)CC4)cc3c2OCC3)C1` (stereo not drawn) [Compound 24], the IC50 was at most 100 nM.

For `C[C@@H](CO)NS(=O)(=O)c1ccc(NC(=O)c2cc3c(c(N4CCC(F)(F)CC4)n2)OCC3)c(N2CCC3(CC2)CC3)c1` [Compound 125], the half-maximal inhibitory concentration (IC50) was at most 100 nM.
